# From PubChem BioAssay AID220 (DTP/NCI, 2004)
# Values joined by “and” are separate entries in the source; they are usually repeats but may differ in a detail not shown here. Identical values can stand only once. Records with an inconclusive call do not appear.
# Tested on: CD8F1 mice, subcutaneous mammary adenocarcinoma, T/C%
# Assay: NCI In Vivo Anticancer Drug Screen. Data for tumor model Mammary Adenocarcinoma CD8F1 (subcutaneous) in CD8F1
# Conditions: higher = larger tumour
# Procedure: The antitumor activity of compounds was measured in mice bearing transplantable tumors. Survival or tumor size were measured and the results are expressed as the measurement made in the treated group (T) divided by the measurement made in the vehicle treated control group (C). The tumor model used in this assay is Mammary Adenocarcinoma CD8F1 (subcutaneous) in CD8F1
# [1] = endpoint: mean tumor weight, dose: 1.5 mg/kg/injection, schedule: Q07DX006 (ip), vehicle: saline
# [2] = endpoint: mean tumor weight, dose: 3.0 mg/kg/injection, schedule: Q07DX006 (ip), vehicle: saline
# [3] = endpoint: median tumor weight (est.), dose: 12.5 mg/kg/injection, schedule: Q07DX005 (ip), vehicle: saline with Tween-80
# [4] = endpoint: median tumor weight (est.), dose: 25.0 mg/kg/injection, schedule: Q07DX005 (ip), vehicle: saline with Tween-80
# [5] = endpoint: median tumor weight (est.), dose: 50.0 mg/kg/injection, schedule: Q07DX005 (ip), vehicle: saline with Tween-80
# [6] = endpoint: median tumor weight (est.), dose: 100.0 mg/kg/injection, schedule: Q07DX005 (ip), vehicle: saline with Tween-80
# [7] = endpoint: median tumor weight (est.), dose: 2.5 mg/kg/injection, schedule: Q07DX005 (ip), vehicle: saline
smiles,measurement,setting,value
Oc1c(Cl)cc(C(c2cc(Cl)c(O)c(Cl)c2)C(c2cc(Cl)c(O)c(Cl)c2)c2cc(Cl)c(O)c(Cl)c2)cc1Cl,T/C,"endpoint: median tumor weight (est.), dose: 12.5 mg/kg/injection, schedule: Q07DX005 (ip), vehicle: Klucel (hydroxypropylcellulose) (HPC)",540 % of control
same,T/C,"endpoint: median tumor weight (est.), dose: 25.0 mg/kg/injection, schedule: Q07DX005 (ip), vehicle: Klucel (hydroxypropylcellulose) (HPC)",341 % of control
same,T/C,"endpoint: median tumor weight (est.), dose: 50.0 mg/kg/injection, schedule: Q07DX005 (ip), vehicle: Klucel (hydroxypropylcellulose) (HPC)",294 % of control
same,T/C,"endpoint: median tumor weight (est.), dose: 100.0 mg/kg/injection, schedule: Q07DX005 (ip), vehicle: Klucel (hydroxypropylcellulose) (HPC)",84 % of control
same,T/C,"endpoint: median tumor weight (est.), dose: 200.0 mg/kg/injection, schedule: Q07DX005 (ip), vehicle: Klucel (hydroxypropylcellulose) (HPC)",192 % of control
CC(=O)OC(C)C1C2=C(C(=O)CC1(C)O)C(=O)c1c(ccc(-c3ccc4c(c3O)C(=O)C3=C(C4=O)C(C(C)OC(C)=O)C(C)(O)CC3=O)c1O)C2=O (stereo not drawn),T/C,"endpoint: median tumor weight change, dose: 3.75 mg/kg/injection, schedule: Q01DX001 (ip), vehicle: saline with Tween-80",105 % of control
same,T/C,"endpoint: median tumor weight change, dose: 7.5 mg/kg/injection, schedule: Q01DX001 (ip), vehicle: saline with Tween-80",42 % of control
same,T/C,"endpoint: median tumor weight change, dose: 15.0 mg/kg/injection, schedule: Q01DX001 (ip), vehicle: saline with Tween-80",88 % of control
same,T/C,"endpoint: median tumor weight change, dose: 30.0 mg/kg/injection, schedule: Q01DX001 (ip), vehicle: saline with Tween-80",83 % of control
CN(C=O)C(C(=O)Nc1cccc2c(OC(=O)C(N(C)C=O)(N(C)C=O)N(C)C=O)c(N=Nc3ccc(S(=O)(=O)Nc4nccs4)cc3)cc(N=Nc3ccc(S(=O)(=O)Nc4nccs4)cc3)c12)(N(C)C=O)N(C)C=O (tested in a mixture with another compound),T/C,"endpoint: median tumor weight change, dose: 250.0 mg/kg/injection, schedule: Q01DX001 (ip), vehicle: saline with Tween-80",100 % of control
same,T/C,"endpoint: median tumor weight change, dose: 1000.0 mg/kg/injection, schedule: Q01DX001 (ip), vehicle: saline with Tween-80",119 % of control
same,T/C,"endpoint: median tumor weight change, dose: 2000.0 mg/kg/injection, schedule: Q01DX001 (ip), vehicle: saline with Tween-80",63 % of control
COc1cccc2c1C(=O)c1c(O)c3c(c(O)c1C2=O)C[C@@](O)(/C(CO)=N/NC(=O)c1ccc(Cl)c(Cl)c1)C[C@@H]3OC1CC(N)C(O)C(C)O1 (stereo partly drawn),T/C,"endpoint: mean tumor weight, dose: 0.75 mg/kg/injection, schedule: Q07DX005 (ip), vehicle: saline",106 % of control
same,T/C,"endpoint: mean tumor weight, dose: 1.5 mg/kg/injection, schedule: Q07DX005 (ip), vehicle: saline",161 % of control
same,T/C,[1],118 % of control
same,T/C,"endpoint: mean tumor weight, dose: 3.0 mg/kg/injection, schedule: Q07DX005 (ip), vehicle: saline",75 % of control
same,T/C,[2],71 % of control
same,T/C,"endpoint: mean tumor weight, dose: 4.0 mg/kg/injection, schedule: Q07DX004 (ip), vehicle: saline",86 % of control
same,T/C,"endpoint: mean tumor weight, dose: 8.0 mg/kg/injection, schedule: Q07DX004 (ip), vehicle: saline",96 % of control
same,T/C,"endpoint: mean tumor weight, dose: 12.0 mg/kg/injection, schedule: Q07DX005 (ip), vehicle: saline",30 % of control
same,T/C,"endpoint: mean tumor weight, dose: 12.0 mg/kg/injection, schedule: Q07DX006 (ip), vehicle: saline",32 % of control
same,T/C,"endpoint: mean tumor weight, dose: 16.0 mg/kg/injection, schedule: Q07DX004 (ip), vehicle: saline",17 % of control
same,T/C,"endpoint: median tumor weight (est.), dose: 2.0 mg/kg/injection, schedule: Q07DX005 (ip), vehicle: suspension in saline",60 % of control
same,T/C,"endpoint: median tumor weight (est.), dose: 4.0 mg/kg/injection, schedule: Q07DX005 (ip), vehicle: suspension in saline",150 % of control
same,T/C,"endpoint: median tumor weight (est.), dose: 8.0 mg/kg/injection, schedule: Q07DX005 (ip), vehicle: suspension in saline",41 % of control
same,T/C,"endpoint: median tumor weight (est.), dose: 16.0 mg/kg/injection, schedule: Q07DX005 (ip), vehicle: suspension in saline",25 % of control
CC1(C)CC1(Br)Br,T/C,[3],69 % of control
same,T/C,[4],90 % of control
same,T/C,[5],116 % of control
same,T/C,[6],59 % of control
CC(C)CC(NC(=O)CF)C(=O)O (stereo not drawn),T/C,"endpoint: median tumor weight (est.), dose: 0.62 mg/kg/injection, schedule: Q07DX005 (ip), vehicle: saline",81 % of control
same,T/C,[7],39 % of control
same,T/C,"endpoint: median tumor weight (est.), dose: 5.0 mg/kg/injection, schedule: Q07DX005 (ip), vehicle: saline",99 % of control
same,T/C,"endpoint: median tumor weight (est.), dose: 10.0 mg/kg/injection, schedule: Q07DX005 (ip), vehicle: saline",41 % of control
CN1CCN(Cc2nc3cccc4c3c([n+]2[O-])-c2ccccc2-4)CC1,T/C,[3],180 % of control
same,T/C,[4],114 % of control
same,T/C,[5],99 % of control
same,T/C,[6],120 % of control
same,T/C,"endpoint: median tumor weight (est.), dose: 200.0 mg/kg/injection, schedule: Q07DX005 (ip), vehicle: saline with Tween-80",68 % of control
COc1cccc2c1C(=O)c1c(O)c3c(c(O)c1C2=O)C[C@@](O)(C(=O)CO)C[C@@H]3OC1CC(N)C(O)C(C)O1 (stereo partly drawn),T/C,"endpoint: mean tumor weight, dose: 0.25 mg/kg/injection, schedule: Q01DX009 (ip), vehicle: saline",38 % of control
same,T/C,"endpoint: mean tumor weight, dose: 0.5 mg/kg/injection, schedule: Q01DX009 (ip), vehicle: saline",17 % of control
same,T/C,"endpoint: mean tumor weight, dose: 0.5 mg/kg/injection, schedule: Q07DX005 (ip), vehicle: saline",85 % of control
same,T/C,"endpoint: mean tumor weight, dose: 0.5 mg/kg/injection, schedule: Q07DX006 (ip), vehicle: saline",45 % of control and 55 % of control and 66 % of control
same,T/C,"endpoint: mean tumor weight, dose: 0.75 mg/kg/injection, schedule: Q07DX006 (ip), vehicle: saline",46 % of control
same,T/C,"endpoint: mean tumor weight, dose: 1.0 mg/kg/injection, schedule: Q01DX009 (ip), vehicle: saline",2 % of control
same,T/C,"endpoint: mean tumor weight, dose: 1.0 mg/kg/injection, schedule: Q07DX005 (ip), vehicle: saline",89 % of control
same,T/C,[1],42 % of control
same,T/C,"endpoint: mean tumor weight, dose: 2.0 mg/kg/injection, schedule: Q07DX005 (ip), vehicle: saline",40 % of control
same,T/C,"endpoint: mean tumor weight, dose: 2.5 mg/kg/injection, schedule: Q07DX006 (ip), vehicle: saline",6 % of control
same,T/C,[2],3 % of control
same,T/C,"endpoint: mean tumor weight, dose: 4.0 mg/kg/injection, schedule: Q07DX006 (ip), vehicle: saline",1 % of control
same,T/C,"endpoint: median tumor weight (est.), dose: 0.25 mg/kg/injection, schedule: Q07DX005 (ip), vehicle: saline",208 % of control and 84 % of control
same,T/C,"endpoint: median tumor weight (est.), dose: 0.37 mg/kg/injection, schedule: Q07DX005 (ip), vehicle: water",84 % of control
same,T/C,"endpoint: median tumor weight (est.), dose: 0.75 mg/kg/injection, schedule: Q07DX005 (ip), vehicle: saline",62 % of control
same,T/C,"endpoint: median tumor weight (est.), dose: 0.75 mg/kg/injection, schedule: Q07DX005 (ip), vehicle: water",47 % of control
same,T/C,"endpoint: median tumor weight (est.), dose: 1.25 mg/kg/injection, schedule: Q07DX005 (ip), vehicle: saline",40 % of control
same,T/C,"endpoint: median tumor weight (est.), dose: 1.5 mg/kg/injection, schedule: Q07DX005 (ip), vehicle: saline",85 % of control
same,T/C,"endpoint: median tumor weight (est.), dose: 1.5 mg/kg/injection, schedule: Q07DX005 (ip), vehicle: water",81 % of control
same,T/C,"endpoint: median tumor weight (est.), dose: 1.8 mg/kg/injection, schedule: Q07DX005 (ip), vehicle: saline",77 % of control
same,T/C,[7],14 % of control
same,T/C,"endpoint: median tumor weight (est.), dose: 2.7 mg/kg/injection, schedule: Q07DX005 (ip), vehicle: saline",51 % of control
same,T/C,"endpoint: median tumor weight (est.), dose: 3.0 mg/kg/injection, schedule: Q07DX005 (ip), vehicle: saline",29 % of control
same,T/C,"endpoint: median tumor weight (est.), dose: 4.4 mg/kg/injection, schedule: Q01DX001 (ip), vehicle: saline",37 % of control
same,T/C,"endpoint: median tumor weight (est.), dose: 4.4 mg/kg/injection, schedule: Q07DX004 (ip), vehicle: saline",11 % of control
same,T/C,"endpoint: median tumor weight (est.), dose: 6.0 mg/kg/injection, schedule: Q07DX005 (ip), vehicle: saline",30 % of control
same,T/C,"endpoint: median tumor weight (est.), dose: 6.7 mg/kg/injection, schedule: Q01DX001 (ip), vehicle: saline",28 % of control
same,T/C,"endpoint: median tumor weight (est.), dose: 6.7 mg/kg/injection, schedule: Q07DX004 (ip), vehicle: saline",5 % of control
same,T/C,"endpoint: median tumor weight (est.), dose: 8.0 mg/kg/injection, schedule: Q07DX005 (ip), vehicle: water",1 % of control
same,T/C,"endpoint: median tumor weight (est.), dose: 10.0 mg/kg/injection, schedule: Q01DX001 (ip), vehicle: saline",15 % of control
same,T/C,"endpoint: median tumor weight (est.), dose: 15.0 mg/kg/injection, schedule: Q01DX001 (ip), vehicle: saline",6 % of control
same,T/C,"endpoint: median tumor weight change, dose: 1.25 mg/kg/injection, schedule: Q01DX001 (ip), vehicle: water",115 % of control
same,T/C,"endpoint: median tumor weight change, dose: 2.5 mg/kg/injection, schedule: Q01DX001 (ip), vehicle: water",81 % of control
same,T/C,"endpoint: median tumor weight change, dose: 3.75 mg/kg/injection, schedule: Q01DX001 (ip), vehicle: saline",96 % of control
same,T/C,"endpoint: median tumor weight change, dose: 4.4 mg/kg/injection, schedule: Q01DX001 (ip), vehicle: water",27 % of control
same,T/C,"endpoint: median tumor weight change, dose: 5.0 mg/kg/injection, schedule: Q01DX001 (ip), vehicle: water",18 % of control
same,T/C,"endpoint: median tumor weight change, dose: 6.7 mg/kg/injection, schedule: Q01DX001 (ip), vehicle: water",-5 % of control
same,T/C,"endpoint: median tumor weight change, dose: 7.5 mg/kg/injection, schedule: Q01DX001 (ip), vehicle: saline",82 % of control
same,T/C,"endpoint: median tumor weight change, dose: 15.0 mg/kg/injection, schedule: Q01DX001 (ip), vehicle: water",-49 % of control
